# What was measured:
# [1] = tested on: Salmonella typhimurium strain TA100; assay: Ames test (genotoxicity); type: cell-based
# Method: (§1) Mutagenic potential of the compound of Formula I was assessed by Ames test in two Salmonella typhimurium strains TA98 and TA100 without and with metabolic activation (S9).
# (§2) Effect of the compound inhibitors on genotoxicity was determined using the Salmonella typhimurium strains of TA 98 and TA 100 in the presence and absence of metabolic activation (S9). Each test concentration included the vehicle and positive controls. Briefly, the compounds were serially diluted in 24-well plates with or without the presence metabolic activation system (S9) and was incubated for 90 min at 37° C. in 250 rpm in a orbital shaking incubator. TA98 and TA100 were then introduced to the wells for 90 min. 50 μL aliquots from each well was dispensed into 384 well plates and incubated for 48 hrs at 37° C. in an incubator before positive wells were scored.
# [2] = tested on: Salmonella typhimurium strain TA98; assay: Ames test (genotoxicity); type: cell-based
# Method: as §1, §2
# [3] = tested on: ACA19 cells; settings: human, 24 h, 100 uM
# Method: (§3) The compounds of Formula I and Formula II cytotoxicity in human colon cancer SW620 (FIG. 8A), vascular HUVEC (FIG. 8B) and human melanoma ACA19 (FIG. 9C) cells was assessed in the absence or presence of various concentrations of the compounds of Formula I and Formula II (the chemotherapeutic drug Etoposide, Etop, was also included as positive control) by Lactate dehydrogenase (LDH) release assay.
# (§4) The compounds of Formula I and Formula II cytotoxicity in human colon cancer SW620 (FIG. 8A), vascular HUVEC (FIG. 8B) and human melanoma (ACA19+) cells, which was assessed in the absence or presence of various concentrations of the compounds of Formula I and Formula II (the chemotherapeutic drug Etoposide, Etop, was also included as positive control) by Lactate dehydrogenase (LDH) release assay.
# (§5) SW620 and ACA19+ cells (5×10^4 cells/ml) were seeded into 96-well plate in DMEM and incubated at […] 5% CO2 for 24 hr. HUVECs (1.0×10^5 cells/ml) was seeded in EBM medium and incubated for 24-36 hr until they formed a monolayer. Compound inhibitors at different concentrations were then introduced to the cells (10× lysis buffer was included as maximum LDH activity control) for 24 hr. The culture medium was transferred to a new plate and was mixed with equal volume of reaction mixture provided in the kit for 30 min at room temperature before the absorbance was measured at 490 nm (reference 680 nm) by a spectrophotometer.
# [4] = tested on: HUVEC cells; settings: human, 24 h, 100 uM
# Method: as §3, §4, §5
# [5] = tested on: SW620 cells; settings: human, 24 h, 100 uM
# Method: as §3, §4, §5
SMILES,revertant colony count [1],revertant colony count [2],cytotoxicity (LDH release) [3] [%],cytotoxicity (LDH release) [4] [%],cytotoxicity (LDH release) [5] [%]
"Nc1ccc2cc3ccccc3cc2c1 [Formula 2AA, reference compound]",distinct increase,distinct increase,–,–,–
COc1cc([C@@H]2c3cc4c(cc3[C@@H](O[C@@H]3O[C@@H]5CO[C@@H](C)O[C@H]5[C@H](O)[C@H]3O)[C@H]3COC(=O)[C@H]23)OCO4)cc(OC)c1O [Etoposide],–,–,~100,~100,~100

# Source: patent publication US20260137696A1, “Compositions Comprising an Inhibitor of Galectin-3” (University of Liverpool, priority 2023, published 2026)
